From patent US9555039B2, “Piperidine derivatives and compositions for the inhibition of nicotinamide phosphoribosyltransferase (NAMPT)” (Forma TM, LLC., priority 2011, dated 2017)

What follows are compounds tested against T1, Recombinant His-tagged NAMPT (Homo sapiens, UniProt P43490) (assay: Biochemical inhibition assay: NAMPT enzymatic reaction, NMN quantified by mass spectrometry). Conditions: 33 nM NAMPT, 1 μM NAM, 100 μM PRPP, 2.5 mM ATP, 30 minutes at room temperature; read-out: Biochem IC50.
T1 construct: His; host or cells: E. coli
T1 sequence (P43490 whole entry): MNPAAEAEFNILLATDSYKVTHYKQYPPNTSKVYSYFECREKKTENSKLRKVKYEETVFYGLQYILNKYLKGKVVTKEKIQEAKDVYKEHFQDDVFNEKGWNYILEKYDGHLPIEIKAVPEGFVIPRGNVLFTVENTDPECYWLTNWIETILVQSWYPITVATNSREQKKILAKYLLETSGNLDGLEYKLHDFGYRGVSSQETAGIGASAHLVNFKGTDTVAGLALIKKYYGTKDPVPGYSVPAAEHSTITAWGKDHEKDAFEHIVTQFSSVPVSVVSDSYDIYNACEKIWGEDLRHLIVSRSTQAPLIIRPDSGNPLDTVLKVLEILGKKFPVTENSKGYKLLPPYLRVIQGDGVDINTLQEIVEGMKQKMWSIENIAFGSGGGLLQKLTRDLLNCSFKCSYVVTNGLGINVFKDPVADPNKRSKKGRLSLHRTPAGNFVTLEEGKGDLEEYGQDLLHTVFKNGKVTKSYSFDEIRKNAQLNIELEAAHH
Protocol: Biochemical Inhibition Assay
NAMPT Protein Purification
Recombinant His-tagged NAMPT was produced in E. coli cells, purified over a Ni column, and further purified over a size-exclusion column by XTAL Biostructures.
The NAMPT Enzymatic Reaction
The NAMPT enzymatic reactions were carried out in Buffer A (50 mM Hepes pH 7.5, 50 mM NaCl, 5 mM MgCl2, and 1 mM THP) in 96-well V-bottom plates. The compound titrations were performed in a separate dilution plate by serially diluting the compounds in DMSO to make a 100× stock. […] The compound and enzyme mix was incubated for 15 minutes at room temperature, then 10 μL of 10× substrate and co-factors in Buffer A were added to the test well to make a final concentration of 1 μM NAM, 100 μM 5-Phospho-D-ribose 1-diphosphate (PRPP), and 2.5 mM Adenosine 5′-triphosphate (ATP). The reaction was allowed to proceed for 30 minutes at room temperature, then was quenched with the addition of 11 μL of a solution of formic acid and L-Cystathionine to make a final concentration of 1% formic acid and 10 μM L-Cystathionine. Background and signal strength was determined by addition (or non-addition) of a serial dilution of NMN to a pre-quenched enzyme and cofactor mix.
A mass spectrometry-based assay was used to measure the Nampt reaction product (NMN) and the internal control (L-Cystathionine). NMN and L-Cystathionine were detected using the services of Biocius Lifesciences with the RapidFire system. In short, the NMN and L-Cystathionine are bound to a graphitic carbon cartridge in 0.1% formic acid, eluted in 30% acetonitrile buffer, and injected into a Sciex 4000 mass spectrometer. The components of the sample were ionized with electrospray ionization and the positive ions were detected. […] The fragments are quantified and the analyzed by the following method.
First the NMN signal is normalized to the L-Cystathionine signal by dividing the NMN signal by the L-Cystathionine signal for each well. The signal from the background wells are averaged and subtracted from the test plates.
Wherein x denotes the average signal of the compound treated wells and y denotes the average signal of the DMSO treated wells.
IC50s are Determined Using Excel and this Formula.
Wherein X denotes the compound concentration 1, Y denotes the compound concentration 2, XX denotes the % inhibition at compound concentration 1 (X), and YY denotes the % inhibition at compound concentration 2 (Y).

Compound	IC50
O=C(NCCCCC1CCN(C(=O)c2cc(F)ccc2F)CC1)c1cc2cnccc2[nH]1 [N-(4-{1-[(2,5-difluorophenyl)carbonyl]piperidin-4-yl}butyl)-1H-pyrrolo[3,2-c]pyridine-2-carboxamide]	10.3 nM
CC(C)c1ccc(C(=O)N2CCC(CCCCNC(=O)c3cc4ccncc4s3)CC2)cn1 [N-[4-(1-{[6-(propan-2-yl)pyridin-3-yl]carbonyl}piperidin-4-yl)butyl]thieno[2,3-c]pyridine-2-carboxamide]	138 nM
O=C(NCCCCC1CCN(C(=O)c2ccc(Cl)c(Cl)c2)CC1)c1cc2cnccc2[nH]1 [N-(4-{1-[(3,4-dichlorophenyl)carbonyl]piperidin-4-yl}butyl)-1H-pyrrolo[3,2-c]pyridine-2-carboxamide]	93 nM
Cc1c(F)cccc1C(=O)N1CCC(CCCCNC(=O)c2ccc3nccn3c2)CC1 [N-(4-{1-[(3-fluoro-2-methylphenyl)carbonyl]piperidin-4-yl}butyl)imidazo[1,2-a]pyridine-6-carboxamide]	13.1 nM
O=C(NCCCCC1CCN(C(=O)c2cc3cc(F)ccc3[nH]2)CC1)c1ccc2nccn2c1 [N-(4-{1-[(5-fluoro-1H-indol-2-yl)carbonyl]piperidin-4-yl}butyl)imidazo[1,2-a]pyridine-6-carboxamide]	71.3 nM
COc1ccc(F)cc1S(=O)(=O)N1CCC(CCCCNC(=O)c2cc3cnccc3[nH]2)CC1 [N-(4-{1-[(5-fluoro-2-methoxybenzene)sulfonyl]piperidin-4-yl}butyl)-1H-pyrrolo[3,2-c]pyridine-2-carboxamide]	23.2 nM
O=C(NCCCCC1CCN(C(=O)c2csc(-c3ccccc3)n2)CC1)c1ccc2nccn2c1 [N-(4-{1-[(2-phenyl-1,3-thiazol-4-yl)carbonyl]piperidin-4-yl}butyl)imidazo[1,2-a]pyridine-6-carboxamide]	52.3 nM
O=C(NCCCCC1CCN(C(=O)c2ccccc2Cl)CC1)c1cc2cnccc2[nH]1 [N-(4-{1-[(2-chlorophenyl)carbonyl]piperidin-4-yl}butyl)-1H-pyrrolo[3,2-c]pyridine-2-carboxamide]	15.8 nM
O=C(NCCCCC1CN(C(=O)c2ccccc2)C1)c1cc2cnccc2[nH]1 [N-[4-(1-benzoylazetidin-3-yl)butyl]-1H-pyrrolo[3,2-c]pyridine-2-carboxamide]	23.2 nM
O=C(NCCCCC1CCN(C(=O)c2ccc(C(F)(F)F)cn2)CC1)c1ccc2nccn2c1 [N-[4-(1-{[5-(trifluoromethyl)pyridin-2-yl]carbonyl}piperidin-4-yl)butyl]imidazo[1,2-a]pyridine-6-carboxamide]	82.3 nM
O=C(NCCCCC1CCN(C(=O)c2ccccc2Cl)CC1)c1ccc2nccn2c1 [N-(4-{1-[(2-chlorophenyl)carbonyl]piperidin-4-yl}butyl)imidazo[1,2-a]pyridine-6-carboxamide]	5 nM
O=C(NCCCCC1CCN(C(=O)c2ccc3nccn3c2)CC1)c1ccc2nccn2c1 [N-{4-[1-({imidazo[1,2-a]pyridin-6-yl}carbonyl)piperidin-4-yl]butyl}imidazo[1,2-a]pyridine-6-carboxamide]	8.5 nM
CC(C)c1ncoc1C(=O)N1CCC(CCCCNC(=O)c2cc3ccncc3s2)CC1 [N-[4-(1-{[4-(propan-2-yl)-1,3-oxazol-5-yl]carbonyl}piperidin-4-yl)butyl]thieno[2,3-c]pyridine-2-carboxamide]	7.4 nM
O=C(NCc1ccc(S(=O)(=O)c2ccc(C(=O)N3CCCC3)cc2)cc1)c1cnc2[nH]ncc2c1 [N-{[4-({4-[(pyrrolidin-1-yl)carbonyl]benzene}sulfonyl)phenyl]methyl}-1H-pyrazolo[3,4-b]pyridine-5-carboxamide]	15.8 nM
Cc1ccc(C(=O)N2CCC(CCCCNC(=O)c3ccc4nccn4c3)CC2)cc1F [N-(4-{1-[(3-fluoro-4-methylphenyl)carbonyl]piperidin-4-yl}butyl)imidazo[1,2-a]pyridine-6-carboxamide]	39.4 nM
O=C(NCc1ccc(S(=O)(=O)c2ccc(C(=O)N3CCCC3)cc2)cc1)c1cc2ccncc2s1 [N-{[4-({4-[(pyrrolidin-1-yl)carbonyl]benzene}sulfonyl)phenyl]methyl}thieno[2,3-c]pyridine-2-carboxamide]	3.7 nM
Cc1oncc1S(=O)(=O)N1CCC(CCCCNC(=O)c2cc3cnccc3[nH]2)CC1 [N-{4-[1-(5-methyl-1,2-oxazole-4-sulfonyl)piperidin-4-yl]butyl}-1H-pyrrolo[3,2-c]pyridine-2-carboxamide]	36.7 nM
COCc1ccc(C(=O)N2CCC(CCCCNC(=O)c3cc4ccncc4s3)CC2)nc1 [N-[4-(1-{[5-(methoxymethyl)pyridin-2-yl]carbonyl}piperidin-4-yl)butyl]thieno[2,3-c]pyridine-2-carboxamide]	18.3 nM

Each compound was assayed on A2780 cells (assay: In-vitro cell proliferation assay (SRB, 72 hours)). Conditions: Homo sapiens, sulforhodamine B (SRB) assay.
Assay type: cell-based
Protocol: In-Vitro Cell Proliferation Assay
After overnight incubation at 37° C. and 5% CO2, the compound titrations were performed in a separate dilution plate by serially diluting the compounds in DMSO to make a 1000× stock. The compounds were then further diluted to 10× final concentration in culture media, whereupon 20 μL of each dilution was added to the plated cells with controls (e.g. DMSO and blank) to make a final volume of 200 μL. The final DMSO concentration in each well was 0.1%. The plates were then incubated for 72 hours at 37° C. in a 5% CO2 incubator. The number of viable cells was then assessed using sulforhodamine B (SRB) assay. Cells were fixed at 4° C. for 1 hour with the addition of 50 μL 30% trichloroacetic acid (TCA) to make a final concentration of 6% TCA. The plates were washed four times with H2O and allowed to dry for at least 1 hour, whereupon 100 μL of a 4% SRB in 1% acetic acid solution was added to each well and incubated at room temperature for at least 30 minutes. The plates were then washed three times with 1% acetic acid, dried, and treated with 100 μL of 10 mM Tris-Base solution. The plates were then read in a microplate reader at an absorbance of 570 nm. Background was generated on a separate plate with media only.
Method for Determining % Inhibition
First, the signals from the background plate are averaged, then the background was subtracted from the test plates.
wherein x denotes the average signal of the compound-treated cells and y denotes the average signal of the DMSO-treated cells.
wherein X denotes the compound concentration 1, Y denotes the compound concentration 2, XX denotes the % inhibition at compound concentration 1 (X), and YY denotes the % inhibition at compound concentration 2 (Y).

Compound	IC50
CC(C)c1ccc(C(=O)N2CCC(CCCCNC(=O)c3cc4ccncc4s3)CC2)cn1 [N-[4-(1-{[6-(propan-2-yl)pyridin-3-yl]carbonyl}piperidin-4-yl)butyl]thieno[2,3-c]pyridine-2-carboxamide]	100 to 1000 nM
O=C(NCCCCC1CCN(C(=O)c2ccc(Cl)c(Cl)c2)CC1)c1cc2cnccc2[nH]1 [N-(4-{1-[(3,4-dichlorophenyl)carbonyl]piperidin-4-yl}butyl)-1H-pyrrolo[3,2-c]pyridine-2-carboxamide]	58 nM
Cc1c(F)cccc1C(=O)N1CCC(CCCCNC(=O)c2ccc3nccn3c2)CC1 [N-(4-{1-[(3-fluoro-2-methylphenyl)carbonyl]piperidin-4-yl}butyl)imidazo[1,2-a]pyridine-6-carboxamide]	3.5 nM
O=C(NCCCCC1CCN(C(=O)c2cccc(Cl)c2)CC1)c1cc2cnccc2[nH]1 [N-(4-{1-[(3-chlorophenyl)carbonyl]piperidin-4-yl}butyl)-1H-pyrrolo[3,2-c]pyridine-2-carboxamide]	11.9 nM
COc1ccc(Cl)cc1C(=O)N1CCC(CCCCNC(=O)c2cc3cnccc3[nH]2)CC1 [N-(4-{1-[(5-chloro-2-methoxyphenyl)carbonyl]piperidin-4-yl}butyl)-1H-pyrrolo[3,2-c]pyridine-2-carboxamide]	3.3 nM
O=C(NCCCCC1CCN(C(=O)c2ccc(F)cc2)CC1)c1cc2cnccc2[nH]1 [N-(4-{1-[(4-fluorophenyl)carbonyl]piperidin-4-yl}butyl)-1H-pyrrolo[3,2-c]pyridine-2-carboxamide]	14.7 nM
O=C(NCCCCC1CCN(C(=O)c2cc(F)ccc2F)CC1)c1cc2ccncc2s1 [N-(4-{1-[(2,5-difluorophenyl)carbonyl]piperidin-4-yl}butyl)thieno[2,3-c]pyridine-2-carboxamide]	1.6 nM
O=C(NCCCCC1CCN(C(=O)c2ccc(-n3cccn3)cc2)CC1)c1ccc2nccn2c1 [N-[4-(1-{[4-(1H-pyrazol-1-yl)phenyl]carbonyl}piperidin-4-yl)butyl]imidazo[1,2-a]pyridine-6-carboxamide]	67.1 nM
COc1cccc(C(=O)N2CCC(CCCCNC(=O)c3cc4cnccc4[nH]3)CC2)c1 [N-(4-{1-[(3-methoxyphenyl)carbonyl]piperidin-4-yl}butyl)-1H-pyrrolo[3,2-c]pyridine-2-carboxamide]	3.8 nM
COc1cccc(C(=O)N2CCC(CCCCNC(=O)c3ccc4nccn4c3)CC2)c1 [N-(4-{1-[(3-methoxyphenyl)carbonyl]piperidin-4-yl}butyl)imidazo[1,2-a]pyridine-6-carboxamide]	6.6 nM
COc1cc(OC)cc(C(=O)N2CCC(CCCCNC(=O)c3ccc4nccn4c3)CC2)c1 [N-(4-{1-[(3,5-dimethoxyphenyl)carbonyl]piperidin-4-yl}butyl)imidazo[1,2-a]pyridine-6-carboxamide]	2.8 nM
Cc1cccc(C(=O)N2CCC(CCCCNC(=O)c3cc4ccncc4s3)CC2)c1F [N-(4-{1-[(2-fluoro-3-methylphenyl)carbonyl]piperidin-4-yl}butyl)thieno[2,3-c]pyridine-2-carboxamide]	12.6 nM
O=C(NCCc1ccc(OCc2ccccc2)cc1)c1cc2cnccc2[nH]1 [N-(4-(benzyloxy)phenethyl)-1H-pyrrolo[3,2-c]pyridine-2-carboxamide]	2000 nM
